Source: patent publication US11236084B2, “Substituted azaindoline derivatives as NIK inhibitors” (Janssen Pharmaceutica NV, priority 2017, dated 2022)
Where two headings read alike, the source gives them in different places.

Tests used:
[1] = biological target: T1, recombinant human NF-kappaB-inducing kinase (NIK/MAP3K14) (Homo sapiens, UniProt Q99558); assay: Biological Assay A: inhibition of recombinant human NF-kappaB-inducing kinase (NIK/MAP3K14) activity (MBP phosphorylation, Mesoscale); conditions: MSD MBP; averaged over all measurements on all batches; read-out: Assay A Biochemical (MSD MBP) IC50
Experimental: Pharmacological Part Biological Assay A Inhibition of Recombinant Human NF-kappaB-Inducing Kinase (NIK/MAP3K14) Activity
Assay buffer was 50 mM Tris pH 7.5 containing 1 mM EGTA (ethylene glycol tetraacetic acid), 1 mM DTT (dithiothreitol), 0.1 mM Na3VO4, 5 mM MgCl2, 0.01% Tween® 20. Assays were carried out in 384 well Mesoscale high binding plates which had been coated with myelin basic protein (MBP) and blocked with bovine serum albumin to prevent non-specific protein binding. All compounds tested were dissolved in dimethyl sulfoxide (DMSO) and further dilutions were made in assay buffer. Final DMSO concentration was 1% (v/v) in assays. Incubations consisted of compound (1% DMSO in control and blank wells), 25 μM […] (ATP), and 10 nM NIK/MAP3K14 substituting enzyme with buffer in the blank wells. Incubations were carried out for 1 h at 25° C. and were followed by washing and sequential incubation with rabbit anti-phospho-MBP and anti-rabbit Ig Sulfotag antibody before reading bound Sulfotag on a Mesoscale Discovery. Signal obtained in the wells containing blank samples was subtracted from all other wells and […] were determined by fitting a sigmoidal curve to % inhibition of control versus Log10 compound concentration.
(§1) Data for the compounds of the invention in the above assays are provided in Table A (the values in Table are averaged values over all measurements on all batches of a compound; values as IC50 (nM)). (‘n.c.’ means not calculated: ‘Co.’ means compound)

[2] = system: P-IKKα levels in L363 (NIK translocated multiple myeloma) cells; assay: Biological Assay C: effect of compounds on P-IKKα levels in L363 (NIK translocated multiple myeloma) cells, performed at 2 locations; assay type: cell-based, human; conditions: averaged values
Experimental: Effect of Compounds on P-IKKα Levels in L363 (NIK Translocated Multiple Myeloma) Cells
All compounds tested were dissolved in DMSO and further dilutions were made in culture medium. Final DMSO concentration was 1% (v/v) in cell assays. The human L363 cells (ATCC) were cultured in RPMI 1640 medium supplemented with GlutaMax and 10% fetal calf serum (PAA). Cells were routinely maintained at densities of 0.2×10^6 cells per ml-1×10^6 cells per ml at 37° C. in a humidified 5% CO2 atmosphere. Cells were passaged twice a week splitting back to obtain the low density. Cells were seeded in 96 well plates (Nunc 167008) at 2×10^6 per ml media in a volume of 75 μl per well plus 25 μl […] recombinant human B-cell activating factor (BAFF/BLyS/TNFSF13B). Seeded cells were incubated at 37° C. in a humidified 5% CO2 atmosphere for 24 hr. Drugs and/or solvents were added (20 μl) to a final volume of 120 μl. Following 2 hr treatment plates were removed from the incubator and cell lysis was achieved by the addition of 30 μl 5× lysis buffer followed by shaking on a plate shaker at 4° C. for 10 min. At the end of this incubation lysed cells were centrifuged at 800×g for 20 min at 4° C. and the lysate was assessed for P-IKKα levels by sandwich immuno-assay carried out in anti-rabbit antibody coated Mesoscale plates. Within an experiment, the results for each treatment were the mean of 2 replicate wells. For initial screening purposes, compounds were tested using an 8 point dilution curve (serial 1:3 dilutions). For each experiment, controls (containing MG132 and BAFF but no test drug) and a blank incubation (containing MG132 and BAFF and 1 μM ADS125117, a test concentration known to give full inhibition) were run in parallel. The blank incubation value was subtracted from all control and sample values. To determine the IC50 a sigmoidal curve was fitted to the plot of % inhibition of control P-IKKα levels versus Log10 compound concentration.
Assay C was performed at 2 different locations.
as §1

[3] = biological target: T1, recombinant human NF-kappaB-inducing kinase (NIK/MAP3K14); assay: Biological Assay B: inhibition of auto-phosphorylation of recombinant human NIK/MAP3K14 (AlphaScreen), performed at 2 locations; assay type: biochemical; conditions: averaged values
Procedure, shortened: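 Run at two separate sites: 1 h, 25° C. reactions containing 0.2 nM GST-NIK, 25 microM ATP and compound (1% DMSO) in Tris pH 7.5/MgCl2 buffer. Phosphorylation detected via anti-phospho-IKK Ser176/180 antibody with AlphaScreen beads; IC50 fitted to % inhibition.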

[4] = Homo sapiens, L-363, location 2, L363 cells, P-IKKα levels, read-out: Assay C location 2 IC50
[5] = location 1, AlphaScreen auto-phosphorylation, read-out: Assay B location 1 IC50
[6] = location 2, AlphaScreen auto-phosphorylation, read-out: Assay B location 2 IC50
[7] = Homo sapiens, L-363, location 1, L363 cells, P-IKKα levels, read-out: Assay C location 1 IC50

T1 sequence (Q99558 whole entry): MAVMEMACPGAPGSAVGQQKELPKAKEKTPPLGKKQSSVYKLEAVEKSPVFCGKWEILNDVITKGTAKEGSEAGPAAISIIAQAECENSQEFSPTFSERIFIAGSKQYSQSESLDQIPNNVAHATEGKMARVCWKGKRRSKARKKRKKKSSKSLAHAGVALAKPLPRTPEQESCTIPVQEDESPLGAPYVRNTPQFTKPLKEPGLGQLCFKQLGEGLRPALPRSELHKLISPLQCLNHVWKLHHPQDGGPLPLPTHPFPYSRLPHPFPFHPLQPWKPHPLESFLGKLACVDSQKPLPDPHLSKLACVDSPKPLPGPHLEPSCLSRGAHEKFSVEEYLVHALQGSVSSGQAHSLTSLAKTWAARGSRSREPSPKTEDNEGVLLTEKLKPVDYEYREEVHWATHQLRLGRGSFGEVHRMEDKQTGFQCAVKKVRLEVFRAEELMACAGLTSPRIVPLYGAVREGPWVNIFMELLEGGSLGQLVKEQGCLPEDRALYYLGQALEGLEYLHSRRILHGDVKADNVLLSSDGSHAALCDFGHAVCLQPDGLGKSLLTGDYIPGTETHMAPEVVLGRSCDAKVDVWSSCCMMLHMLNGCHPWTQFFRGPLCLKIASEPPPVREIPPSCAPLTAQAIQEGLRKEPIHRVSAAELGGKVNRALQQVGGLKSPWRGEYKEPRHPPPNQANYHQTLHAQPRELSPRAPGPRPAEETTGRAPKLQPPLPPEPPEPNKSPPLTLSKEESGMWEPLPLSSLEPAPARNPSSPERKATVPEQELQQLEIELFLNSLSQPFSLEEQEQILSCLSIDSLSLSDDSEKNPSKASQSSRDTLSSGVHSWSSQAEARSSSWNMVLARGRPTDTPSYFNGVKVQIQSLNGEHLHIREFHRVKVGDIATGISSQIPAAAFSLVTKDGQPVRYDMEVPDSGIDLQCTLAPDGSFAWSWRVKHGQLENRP

IC50 [1] [nM]	IC50 [2, 4] [nM]	SMILES	also measured
13.5	407	CCC(=O)NCc1cccc(Nc2nccc(-c3cnc4c(c3)C(C)(C)CN4)n2)c1C [Compound 64]	–
417	–	COc1c(Nc2nccc(-c3cnc4c(c3)C(C)(C)CN4)n2)cccc1C(=O)N1CCOCC1 [Compound 112]	–
61.7	398	CC1(C)CNc2ncc(-c3ccnc(Nc4ccc(C(=O)NC5CCOCC5)cc4Cl)n3)cc21 [Compound 104]	–
8.3	75.9	CC(=O)NCc1ccc(Nc2nccc(-c3cnc4c(c3)C(C)(C)CN4)n2)c(Br)c1 [Compound 63]	–
7.9	191	CC1(C)CNc2ncc(-c3ccnc(Nc4ccc(C(=O)N5CCC(C#N)CC5)cc4OC(F)F)n3)cc21 [Compound 128]	–
4.1	174	Cc1cc(C(=O)N2CCC(CCO)CC2)ccc1Nc1nccc(-c2cnc3c(c2)C(C)(C)CN3)n1 [Compound 53]	–
6.9	112	COc1cc(Nc2nccc(-c3cnc4c(c3)C(C)(C)CN4)n2)c(C)c(C(=O)NC2CN(C)C2)c1 [Compound 51]	–
251	> 10000	COc1c(Nc2nccc(-c3cnc4c(c3)C(C)(C)CN4)n2)cccc1C(=O)N1CCC(O)CC1 [Compound 114]	–
15.9	95.5	COCCNC(=O)c1cc(OC)cc(Nc2nccc(-c3cnc4c(c3)C(C)(C)CN4)n2)c1C [Compound 106]	–
288	–	COc1c(Nc2nccc(-c3cnc4c(c3)C(C)(C)CN4)n2)cccc1C(=O)NC1CCOCC1 [Compound 113]	–
39.8	646	Cc1cc(C(=O)N2CC(C)(O)C2)ccc1Nc1nccc(-c2cnc3c(c2)C(C)(C)CN3)n1 [Compound 80]	–
347	~10000	CC1(C)CNc2ncc(-c3ccnc(Nc4ccc(C(=O)NC5CCOCC5)cc4C(F)(F)F)n3)cc21 [Compound 94]	–
6.8	67.6	CCC(=O)NCc1ccc(Nc2nccc(-c3cnc4c(c3)C(C)(C)CN4)n2)c(C)c1 [Compound 74]	–
35.5	2690	CC(=O)NCc1ccc(Nc2nccc(-c3cnc4c(c3)C(C)(C)CN4)n2)c(F)c1 [Compound 83]	–
12.3	135	Cc1cc(CNC(=O)C(C)C)ccc1Nc1nccc(-c2cnc3c(c2)C(C)(C)CN3)n1 [Compound 75]	–
> 10000	–	COc1ccc(C)c(Nc2nccc(-c3cnc4c(c3)C(C)(C)CN4)n2)c1CNC(C)=O [Compound 135]	–
24	617	Cc1c(CNC(=O)C(C)C)cccc1Nc1nccc(-c2cnc3c(c2)C(C)(C)CN3)n1 [Compound 65]	–
13.5	93.3	Cc1cc(C(=O)N2CCC(C(C)(C)O)CC2)ccc1Nc1nccc(-c2cnc3c(c2)C(C)(C)CN3)n1 [Compound 98]	–
129	2340	CC1(C)CNc2ncc(-c3ccnc(Nc4ccc(C(=O)NC5CCOCC5)cc4C(F)F)n3)cc21 [Compound 110]	–
457	–	Cc1cc(C#N)ccc1Nc1nccc(-c2cnc3c(c2)C(C)(C)CN3)n1 [Compound 115]	–
–	–	COc1cc(C(=O)NC2CCOCC2)c(Cl)cc1Nc1nccc(-c2cnc3c(c2)C(C)(CO)CN3)n1 (stereo not drawn) [Compound 8]	IC50 [3, 5]: 4.6 nM; IC50 [3, 6]: 1.6 nM; IC50 [2, 7]: 8.3 nM

IC50 [1] [nM]	IC50 [2, 4] [nM]	SMILES	also measured
–	427	COc1cc(C(=O)N(C)C)ccc1Nc1nccc(-c2cnc3c(c2)C(C)(CO)CN3)n1 (stereo not drawn) [Compound 153]	IC50 [3, 5]: 18.6 nM
162	> 10000	Cc1cc(N2CCOCC2)ccc1Nc1nccc(-c2cnc3c(c2)C(C)(C)CN3)n1 [Compound 117]	–
6.6	174	Cc1cc(C(=O)N2CCS(=O)(=O)CC2)ccc1Nc1nccc(-c2cnc3c(c2)C(C)(C)CN3)n1 [Compound 100]	–
13.5	182	COCC(=O)NCc1ccc(Nc2nccc(-c3cnc4c(c3)C(C)(C)CN4)n2)c(C)c1 [Compound 76]	–
339	> 10000	CN1CCC(NC(=O)c2ccc(Nc3nccc(-c4cnc5c(c4)C(C)(C)CN5)n3)c(C(F)(F)F)c2)CC1 [Compound 91]	–
5.8	–	COC1CCN(C(=O)c2ccc(Nc3nccc(-c4cnc5c(c4)C(C)(CO)CN5)n3)c(C)c2)CC1 (stereo not drawn) [Compound 133]	IC50 ([2]; location 2, L363 cells, P-IKKα levels, read-out: Assay C location 2 IC50): 129 nM
10.7	363	COCC(=O)NCc1cccc(Nc2nccc(-c3cnc4c(c3)C(C)(C)CN4)n2)c1C [Compound 66]	–
–	105	COc1cc(C(=O)N2CCCC(OC)CC2)ccc1Nc1nccc(-c2cnc3c(c2)C(C)(CO)CN3)n1 (stereo not drawn) [Compound 150]	IC50 [3, 6]: 5.4 nM
–	676	COc1ccccc1Nc1nccc(-c2cnc3c(c2)C(C)(CO)CN3)n1 (stereo not drawn) [Compound 151]	IC50 [3, 6]: 17.8 nM; IC50 [2, 7]: ~912 nM
–	204	COc1cc(C(=O)NC2CCCOCC2)ccc1Nc1nccc(-c2cnc3c(c2)C(C)(CO)CN3)n1 (stereo not drawn) [Compound 142]	IC50 [3, 6]: 13.5 nM; IC50 [2, 7]: 309 nM
–	–	CC1(CO)CNc2ncc(-c3ccnc(Nc4cc(Cl)ccc4S(C)(=O)=O)n3)cc21 (stereo not drawn) [Compound 335]	IC50 [3, 5]: 269 nM; IC50 [2, 7]: > 10000 nM
–	–	COc1cc(N2CCN(C(C)C)CC2)c(Cl)cc1Nc1nccc(-c2cnc3c(c2)C(C)(CO)CN3)n1 (stereo not drawn) [Compound 14]	IC50 [3, 5]: ~3 nM; IC50 [3, 6]: 0.9 nM; IC50 [2, 7]: 19.5 nM
–	–	COc1cc(C(=O)NC2CCOCC2)c(Cl)cc1Nc1nccc(-c2cnc3c(c2)C(C)(C)CN3)n1 [Compound 299]	IC50 [3, 5]: 3.2 nM; IC50 [3, 6]: 0.9 nM; IC50 [2, 7]: 29.5 nM
–	–	CN1CCC(Oc2ccc(Cl)cc2Nc2nccc(-c3cnc4c(c3)C(C)(CO)CN4)n2)CC1 (stereo not drawn) [Compound 15]	IC50 [3, 5]: 8.5 nM; IC50 [2, 7]: 479 nM
–	158	COc1cc(C(=O)N2CCC(OC)CC2)ccc1Nc1nccc(-c2cnc3c(c2)C(C)(CC#N)CN3)n1 (stereo not drawn) [Compound 148]	IC50 [3, 6]: 4.8 nM
~501	–	Cc1cc(C(=O)O)ccc1Nc1nccc(-c2cnc3c(c2)C(C)(C)CN3)n1 [Compound 97]	IC50 [3, 5]: > 10000 nM
–	69.2	COc1cc(C(=O)NC2CCOCC2)ccc1Nc1ncc(F)c(-c2cnc3c(c2)C(C)(CO)CN3)n1 (stereo not drawn) [Compound 2]	IC50 [3, 5]: 5.5 nM
–	229	COc1cc(C(=O)N2CCC(OC)C2)ccc1Nc1nccc(-c2cnc3c(c2)C(C)(CO)CN3)n1 (stereo not drawn) [Compound 136]	IC50 [3, 6]: 3.3 nM; IC50 [2, 7]: 355 nM
–	–	CN1CCC(Oc2ccc(Cl)cc2Nc2nccc(-c3cnc4c(c3)C(C)(C)CN4)n2)CC1 [Compound 338]	IC50 ([3]; location 1, NIK auto-phosphorylation, AlphaScreen, read-out: Assay B location 1 IC50): 19.1 nM; IC50 ([2]; Homo sapiens, L-363, 2 h, location 1, P-IKKα levels in L363 cells, 2 hr treatment, read-out: Assay C location 1 IC50): 3890 nM
–	–	CN(C)CCOc1cc(N2CCOCC2)c(Cl)cc1Nc1nccc(-c2cnc3c(c2)C(C)(CO)CN3)n1 (single isomer, unassigned) [Compound 272]	IC50 [3, 5]: 151 nM; IC50 [3, 6]: 123 nM; IC50 [2, 7]: 9120 nM
–	234	COc1cc(C(=O)N2CCCC2)ccc1Nc1nccc(-c2cnc3c(c2)C(C)(CO)CN3)n1 (stereo not drawn) [Compound 138]	IC50 [3, 6]: 6.3 nM
